Consider 18 compounds from US20220033407A1, “N-(pyridin-2-ylsulfonyl)cyclopropanecarboxamide Derivatives and their Use in the Treatment of Disease” (NOVARTIS AG, priority 2018, published 2022).

SMILES strings stand for the structures.

Assay [1] deals with T1, delF508-CFTR-HRP (Homo sapiens, UniProt P13569, DEL508-508).
T1 construct: expressed in transfected cells
Description: Measurement of delF508-CFTR-HRP surface expression in CFBE41o- cells (HRP luminescence).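 As to DelF508-CFTR-HRP Amax %: percent efficacy relative to a reference CFTR corrector compound.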 In kind it is cell-based. The note with it: for Emax: CFBE41o-, read-out: DelF508-CFTR-HRP Amax %; for EC50: mean of at least two replicates. The method in brief:
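Stably transfected CFBE41o- cells carrying HRP in the fourth extracellular loop of delF508-CFTR, induced with 500 ng/mL doxycycline for 48 h, then compound-treated 24 h at 37° C (10-point, 3-fold, top 10 μM). Surface HRP detected by luminescent substrate; EC50 from logistic fit, triplicates, normalized to lowest-concentration median.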

Assay [2] addresses T2, delF508-CFTR (Homo sapiens, UniProt P13569, DEL508-508).
T2 construct: functional activity of the CFTR channel (Chloride ion transport) in patient derived primary human bronchial epithelial cells; host or cells: patient-derived primary human bronchial epithelial cells (HBECs), delF508-CFTR
Nature of the assay: delF508-CFTR functional activity in primary human bronchial epithelial cells (HBECs), Multi-Transepithelial Clamp Circuit (MTECC-24) assay, equivalent short circuit current. In kind it is cell-based. To be noted: primary CF HBECs; for MTECC24 CFHBEC-Amax %: relative to reference combination 2 μM 3-(6-(1-(2,2-difluorobenzo[d][1,3]dioxol-5-yl)cyclopropane-1-carboxamido)-3-methylpyridin-2-yl)benzoic acid (24 h) + 0.5 μM N-(2,4-di-tert-butyl-5-hydroxyphenyl)-4-oxo-1,4-dihydroquinoline-3-carboxamide; for EC50: test compound added 24 h before assay, potentiator (S)-3-amino-6-methoxy-N-(3,3,3-trifluoro-2-hydroxy-2-methylpropyl)-5-(trifluoromethyl)picolinamide present at assay, mean of at least two replicates, read-out: MTECC24 CFHBEC-EC50. An outline of the steps:
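Patient-derived delF508 HBECs, grown at air-liquid interface about two weeks, were corrected with compound basolaterally for 24 h. Compound was then re-added apically and basolaterally in HEPES pH7.4 assay medium, with sequential modulators including forskolin and the picolinamide potentiator. Ieq was recorded, normalised to 0.1% DMSO wells, and EC50 fitted from 10-point curves.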

One may read the EC50 as the concentration needed to bring the measured effect to its halfway point.

T1 sequence (P13569 with tags, fused parts or gaps DEL508-508): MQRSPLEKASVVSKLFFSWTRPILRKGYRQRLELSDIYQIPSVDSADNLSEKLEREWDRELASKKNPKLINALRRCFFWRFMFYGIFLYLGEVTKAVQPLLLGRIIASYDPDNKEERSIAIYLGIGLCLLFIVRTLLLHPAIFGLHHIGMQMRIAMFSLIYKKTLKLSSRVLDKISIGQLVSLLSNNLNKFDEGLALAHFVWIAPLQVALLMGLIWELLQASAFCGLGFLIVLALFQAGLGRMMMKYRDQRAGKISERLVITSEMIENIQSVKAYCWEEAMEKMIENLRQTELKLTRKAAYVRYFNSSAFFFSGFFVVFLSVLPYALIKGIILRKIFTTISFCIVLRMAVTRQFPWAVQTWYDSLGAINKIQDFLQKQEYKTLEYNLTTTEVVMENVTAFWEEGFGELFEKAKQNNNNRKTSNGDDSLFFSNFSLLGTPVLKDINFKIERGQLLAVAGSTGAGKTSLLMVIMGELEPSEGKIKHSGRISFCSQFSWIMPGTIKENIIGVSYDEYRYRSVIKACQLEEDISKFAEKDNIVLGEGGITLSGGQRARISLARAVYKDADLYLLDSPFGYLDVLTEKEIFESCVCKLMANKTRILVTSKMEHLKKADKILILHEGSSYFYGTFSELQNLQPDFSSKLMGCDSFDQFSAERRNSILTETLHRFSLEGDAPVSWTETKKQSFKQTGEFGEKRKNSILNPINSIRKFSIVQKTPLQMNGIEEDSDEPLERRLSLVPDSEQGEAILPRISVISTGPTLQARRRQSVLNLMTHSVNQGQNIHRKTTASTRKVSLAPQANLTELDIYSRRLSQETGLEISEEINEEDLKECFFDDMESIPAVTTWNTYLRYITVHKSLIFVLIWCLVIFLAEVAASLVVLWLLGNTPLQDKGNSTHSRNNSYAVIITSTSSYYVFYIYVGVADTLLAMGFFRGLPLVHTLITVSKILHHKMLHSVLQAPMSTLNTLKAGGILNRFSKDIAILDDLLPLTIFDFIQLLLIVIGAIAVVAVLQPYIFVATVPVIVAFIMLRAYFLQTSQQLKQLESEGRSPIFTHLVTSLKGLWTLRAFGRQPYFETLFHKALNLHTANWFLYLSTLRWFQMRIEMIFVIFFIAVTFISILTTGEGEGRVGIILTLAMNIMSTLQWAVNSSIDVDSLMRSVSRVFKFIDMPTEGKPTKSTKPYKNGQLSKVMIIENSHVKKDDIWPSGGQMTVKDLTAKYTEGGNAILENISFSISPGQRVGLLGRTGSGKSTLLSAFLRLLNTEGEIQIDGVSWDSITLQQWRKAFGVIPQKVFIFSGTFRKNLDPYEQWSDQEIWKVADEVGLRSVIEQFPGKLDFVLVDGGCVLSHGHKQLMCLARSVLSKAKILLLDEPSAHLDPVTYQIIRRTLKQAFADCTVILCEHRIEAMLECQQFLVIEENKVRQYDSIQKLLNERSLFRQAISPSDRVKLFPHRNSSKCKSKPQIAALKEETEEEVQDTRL
T2 sequence (P13569 with tags, fused parts or gaps DEL508-508): as above

On to `O=C(NS(=O)(=O)c1cccc(N2CC[C@H](O)C2)n1)C1(Oc2cc(Cl)ccc2N2CCC3(CCCCC3)CC2)CC1` [Example 9-14, (S)-1-(5-Chloro-2-(3-azaspiro[5.5]undecan-3-yl)phenoxy)-N-((6-(3-hydroxypyrrolidin-1-yl)pyridin-2-yl)sulfonyl)cyclopropanecarboxamide], for which, in assay [1], the Emax was 279% and the midpoint of the response, the EC50, lay at 700 nM. Also, in assay [2], the “MTECC24 CFHBEC-Amax %” value came to 170.7% and the EC50 came out at 454 nM.
The corresponding values for `Cc1ccc(C2(C)CC2)c(OC2(C(=O)NS(=O)(=O)c3cccc(NC[C@H](C)O)n3)CC2)c1` [Example 4-16, (S)-N-((6-((2-Hydroxypropyl)amino)pyridin-2-yl)sulfonyl)-1-(5-methyl-2-(1-methylcyclopropyl)phenoxy)cyclopropane-1-carboxamide] are 113%, 3460 nM, 48% and 9 nM.
On the same counts, the results for `Cc1ccc(-c2cccc(C(F)(F)F)c2)c(OC2(C(=O)NS(=O)(=O)c3cccc(N4CCC(N)(C(F)(F)F)CC4)n3)CC2)c1` [Example 5-16, N-((6-(4-Amino-4-(trifluoromethyl)piperidin-1-yl)pyridin-2-yl)sulfonyl)-1-((4-methyl-3′-(trifluoromethyl)-[1,1′-biphenyl]-2-yl)oxy)cyclopropane-1-carboxamide] are 294%, 420 nM, 79% and 7 nM.
For `Cc1ccc(C2CCC(C)(C)OC2)c(OC2(C(=O)NS(=O)(=O)c3cccc(N4CCC(O)(C(F)(F)F)CC4)n3)CC2)c1` (single isomer, unassigned) [Example 11-2-2, 1-(2-(6,6-Dimethyltetrahydro-2H-pyran-3-yl)-5-methylphenoxy)-N-((6-(4-hydroxy-4-(trifluoromethyl)piperidin-1-yl)pyridin-2-yl)sulfonyl)cyclopropane-1-carboxamide], in assay [1], the “DelF508-CFTR-HRP Amax %” value turned out to be 361.4% and it took 1780 nM to reach a half-maximal effect (EC50). In addition, in assay [2], the “MTECC24 CFHBEC-Amax %” value stood at 100.3% and the concentration giving a half-maximal response (EC50) stood at 757 nM.
For the compound `C[C@]1(O)CCN(c2cccc(S(=O)(=O)NC(=O)C3(Oc4cc(Cl)ccc4C4CC5(CCC5)C4)CC3)n2)C1` (single isomer, unassigned) [Example 7-2-1], in assay [1], the Emax was determined as 674% and the EC50 was determined as 1420 nM. In assay [2], the “MTECC24 CFHBEC-Amax %” value is listed as 214.4% and the EC50 was found to be 289 nM.
As for `O=C(NS(=O)(=O)c1cccc(N2CC[C@H](O)C2)n1)C1(Oc2cc(Cl)ccc2N2CC3CCC(C3)C2)CC1` [Example 9-18, 1-(2-(3-Azabicyclo[3.2.1]octan-3-yl)-5-chlorophenoxy)-N-((6-((S)-3-hydroxypyrrolidin-1-yl)pyridin-2-yl)sulfonyl)cyclopropanecarboxamide], in assay [1], the Emax turned out to be 510% and the EC50 worked out at 1300 nM. Further, in assay [2], the “MTECC24 CFHBEC-Amax %” value amounted to 148.1% and the EC50 is 548 nM.
Take `Cc1ccc(CC(C)C)c(OC2(C(=O)NS(=O)(=O)c3cccc(NC[C@H](C)O)n3)CC2)c1` [Example 4-9, (S)-N-((6-((2-Hydroxypropyl)amino)pyridin-2-yl)sulfonyl)-1-(2-isobutyl-5-methylphenoxy)cyclopropane-1-carboxamide]: in assay [1], the Emax stood at 477% and the concentration for a half-maximal effect (EC50) came to 3460 nM. In assay [2], the “MTECC24 CFHBEC-Amax %” value was 70% and the concentration for a half-maximal effect (EC50) is 23 nM.
Take `Cc1ccc(C2CCCCC2)c(OC2(C(=O)NS(=O)(=O)c3cccc(N4CCNC(C(F)(F)F)C4)n3)CC2)c1` (stereo not drawn) [Example 2-37, 1-(2-Cyclohexyl-5-methylphenoxy)-N-((6-(3-(trifluoromethyl)piperazin-1-yl)pyridin-2-yl)sulfonyl)cyclopropanecarboxamide]: in assay [1], the Emax amounted to 306% and the EC50 stood at 1350 nM. Moreover, in assay [2], the “MTECC24 CFHBEC-Amax %” value was found to be 103% and the concentration for a half-maximal effect (EC50) worked out at 3 nM.
As for `Cc1ccc(C2CCCCC2)c(OC2(C(=O)NS(=O)(=O)c3cccc(N4CCC(C)(O)CC4)n3)CC2)c1` [Example 2-49, 1-(2-Cyclohexyl-5-methylphenoxy)-N-((6-(4-hydroxy-4-methylpiperidin-1-yl)pyridin-2-yl)sulfonyl)cyclopropane-1-carboxamide], in assay [1], the Emax is 391% and the EC50 was determined as 1050 nM. In assay [2], the “MTECC24 CFHBEC-Amax %” value was 102% and the EC50 is 5 nM.
Turning to `Cc1ccc(C2CCCCC2)c(OC2(C(=O)NS(=O)(=O)c3cccc(N4CC5(CCN5)C4)n3)CC2)c1` [Example 2-21, N-((6-(1,6-Diazaspiro[3.3]heptan-6-yl)pyridin-2-yl)sulfonyl)-1-(2-cyclohexyl-5-methylphenoxy)cyclopropanecarboxamide], in assay [1], the Emax is 252% and the midpoint of the response, the EC50, lay at 3390 nM. Besides, in assay [2], the “MTECC24 CFHBEC-Amax %” value was found to be 99% and the concentration giving a half-maximal response (EC50) stood at 93 nM.
With `Cc1ccc(C2CCC3(CCCC3)OC2)c(OC2(C(=O)NS(=O)(=O)c3cccc(N4CCC(O)(c5ccc(Cl)cc5)CC4)n3)CC2)c1` (single isomer, unassigned) [Example 11-3-2, N-((6-(4-(4-chlorophenyl)-4-hydroxypiperidin-1-yl)pyridin-2-yl)sulfonyl)-1-(5-methyl-2-(6-oxaspiro[4.5]decan-8-yl)phenoxy)cyclopropane-1-carboxamide], in assay [1], the “DelF508-CFTR-HRP Amax %” value came to 481.9% and a half-maximal response (EC50) required 440 nM. For the same compound, in assay [2], the “MTECC24 CFHBEC-Amax %” value was 79.0% and the EC50 was 79 nM.
In the case of `Cc1ccc(C2CCCOC2)c(OC2(C(=O)NS(=O)(=O)c3cccc(N4CCC[C@@H](CO)C4)n3)CC2)c1` (stereo partly drawn) [Example 4-20, N-((6-((R)-3-(hydroxymethyl)piperidin-1-yl)pyridin-2-yl)sulfonyl)-1-(5-methyl-2-(tetrahydro-2H-pyran-3-yl)phenoxy)cyclopropane-1-carboxamide], in assay [1], the Emax stood at 202% and the 50% effective concentration (EC50) worked out at 3230 nM. In assay [2], the “MTECC24 CFHBEC-Amax %” value worked out at 54% and the EC50 came out at 297 nM.
The corresponding values for `Cc1ccc(C2CCCCC2)c(OC2(C(=O)NS(=O)(=O)c3cccc(N4CCC(N)(CF)CC4)n3)CC2)c1` [Example 2-19, N-((6-(4-Amino-4-(fluoromethyl)piperidin-1-yl)pyridin-2-yl)sulfonyl)-1-(2-cyclohexyl-5-methylphenoxy)cyclopropanecarboxamide] are 326%, 2610 nM, 120% and 61 nM.
On the same counts, the results for `O=C(NS(=O)(=O)c1cccc(N2CC[C@H](O)C2)n1)C1(Oc2cc(Cl)ccc2N2CC3CCCC3C2)CC1` (stereo partly drawn) [Example 9-24, 1-(5-Chloro-2-(hexahydrocyclopenta[c]pyrrol-2(1H)-yl)phenoxy)-N-((6-((S)-3-hydroxypyrrolidin-1-yl)pyridin-2-yl)sulfonyl)cyclopropanecarboxamide] are 641%, 2170 nM, 135.8% and 389 nM.
For the compound `Cc1ccc(C2CCCCC2)c(OC2(C(=O)NS(=O)(=O)c3cccc(N(C)CC(C)O)n3)CC2)c1` (stereo not drawn) [Example 2-48], in assay [1], the Emax stood at 620% and the concentration giving a half-maximal response (EC50) was found to be 2020 nM. In assay [2], the “MTECC24 CFHBEC-Amax %” value turned out to be 93% and the EC50 amounted to 4 nM.
`Cc1ccc(C2CCCCC2)c(OC2(C(=O)NS(=O)(=O)c3cccc(N(C)C)n3)CC2)c1` [Example 2-25, 1-(2-Cyclohexyl-5-methylphenoxy)-N-((6-(dimethylamino)pyridin-2-yl)sulfonyl)cyclopropanecarboxamide]: in assay [1], the Emax amounted to 661% and it took 1440 nM to reach a half-maximal effect (EC50). In assay [2], the “MTECC24 CFHBEC-Amax %” value is 89% and the half-maximal effective concentration (EC50) worked out at 1 nM.
For the compound `O=C(NS(=O)(=O)c1cccc(N2CC[C@H](O)C2)n1)C1(Oc2cc(Cl)ccc2N2CCC(C(F)(F)F)CC2)CC1` [Example 9-16, (S)-1-(5-Chloro-2-(4-(trifluoromethyl)piperidin-1-yl)phenoxy)-N-((6-(3-hydroxypyrrolidin-1-yl)pyridin-2-yl)sulfonyl)cyclopropanecarboxamide], in assay [1], the Emax came to 317% and the concentration giving a half-maximal response (EC50) came out at 2200 nM. In assay [2], the “MTECC24 CFHBEC-Amax %” value turned out to be 138.2% and the concentration giving a half-maximal response (EC50) amounted to 865 nM.
The corresponding values for `CC1(C)CCN(c2ccc(Cl)cc2OC2(C(=O)NS(=O)(=O)c3cccc(N4CCC(C)(O)CC4)n3)CC2)CC1` [Example 9-42, 1-(5-Chloro-2-(4,4-dimethylpiperidin-1-yl)phenoxy)-N-((6-(4-hydroxy-4-methylpiperidin-1-yl)pyridin-2-yl)sulfonyl)cyclopropane-1-carboxamide] are 588%, 1350 nM, 93.9% and 138 nM.
